# According to patent publication US10300060B2, “Trk-inhibiting compound” (ONO PHARMACEUTICAL CO., LTD., priority 2013, dated 2019):
# Columns and labels:
# KDR = KDR (Homo sapiens (Human), UniProt P35968); test: Enzyme-inhibiting activity test of kinases other than Trk (selectivity experiment): KDR; format: biochemical; conditions: concentration of 3 μM; read-out: Inhibition rate (%) KDR
# Protocol: (§1) A test substance (the present compound) was dissolved in dimethylsulfoxide to prepare a 100-fold concentration of the test concentration, 3 μM. The solution was further diluted to 25-fold with an assay buffer (20 mM HEPES, 0.01% Triton X-100, 2 mM DTT, pH 7.5) to obtain a test substance solution. In a similar manner a positive control substance solution was prepared with a positive control substance.
# (§2) A 4-times concentration solution (5 μL) of the test substance prepared with the assay buffer, 5 μL of a 4-times concentration solution of substrate/ATP/metal (Mg) and 10 μL of a 2-times concentration solution of kinase were mixed in a well of a polypropylene 384-well plate and allowed to react at room temperature for 1 hour. The reaction was terminated by adding 60 μL of a Termination Buffer (QuickScout Screening Assist MSA; Carna Biosciences). The substrate peptide and the phosphorylated peptide in the reaction solution were separated and quantified. The kinase reaction was assessed from the product ratio (P/(P+S)) calculated from the height (S) of the peak of the substrate peptide and the height (P) of the peak of the phosphorylated peptide. Other kinases used in the kinase selectivity experiments were, for example, b-Raf and KDR. The following Table 3 indicates substrates, substrate concentrations, ATP concentrations and positive control substances used in respective kinase enzyme inhibition activity tests.
# b-Raf = b-Raf (Homo sapiens (Human), UniProt P15056); test: Enzyme-inhibiting activity test of kinases other than Trk (selectivity experiment): b-Raf; format: biochemical; conditions: concentration of 3 μM; read-out: Inhibition rate (%) b-Raf
# Chain of b-Raf (P15056 whole entry, species assumed): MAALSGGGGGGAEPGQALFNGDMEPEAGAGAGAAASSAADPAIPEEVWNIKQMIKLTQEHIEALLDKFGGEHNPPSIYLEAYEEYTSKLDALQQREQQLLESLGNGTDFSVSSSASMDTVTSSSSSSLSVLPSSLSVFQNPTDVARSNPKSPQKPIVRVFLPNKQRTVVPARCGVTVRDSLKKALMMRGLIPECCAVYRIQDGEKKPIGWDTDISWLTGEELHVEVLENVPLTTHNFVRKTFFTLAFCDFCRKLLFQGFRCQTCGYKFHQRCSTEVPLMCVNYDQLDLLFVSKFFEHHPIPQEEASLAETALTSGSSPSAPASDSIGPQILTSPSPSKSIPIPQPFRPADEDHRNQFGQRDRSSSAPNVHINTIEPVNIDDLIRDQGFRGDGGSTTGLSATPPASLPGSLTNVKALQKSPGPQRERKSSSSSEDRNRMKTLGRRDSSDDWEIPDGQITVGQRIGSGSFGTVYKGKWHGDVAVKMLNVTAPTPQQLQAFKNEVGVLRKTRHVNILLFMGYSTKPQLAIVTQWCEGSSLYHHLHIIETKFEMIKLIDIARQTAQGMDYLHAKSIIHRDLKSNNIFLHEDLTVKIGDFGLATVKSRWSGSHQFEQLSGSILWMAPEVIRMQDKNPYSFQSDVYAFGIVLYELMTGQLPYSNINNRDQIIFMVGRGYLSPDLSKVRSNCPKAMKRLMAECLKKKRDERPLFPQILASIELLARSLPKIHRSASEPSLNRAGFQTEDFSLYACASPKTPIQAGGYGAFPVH
# Protocol: as §1, §2
# [1] = tested on: sodium monoiodoacetate-induced model rats; test: Analgesic effect on sodium monoiodoacetate-induced model rats; format: in vivo, rat; conditions: MIA-induced model rats; test substance orally twice a day day 14 to 23, day 24 3 hours before measurement; right hind limb weight load ratio; experiment with morphine as positive control
# Chain of KDR (P35968 20-1356, species assumed): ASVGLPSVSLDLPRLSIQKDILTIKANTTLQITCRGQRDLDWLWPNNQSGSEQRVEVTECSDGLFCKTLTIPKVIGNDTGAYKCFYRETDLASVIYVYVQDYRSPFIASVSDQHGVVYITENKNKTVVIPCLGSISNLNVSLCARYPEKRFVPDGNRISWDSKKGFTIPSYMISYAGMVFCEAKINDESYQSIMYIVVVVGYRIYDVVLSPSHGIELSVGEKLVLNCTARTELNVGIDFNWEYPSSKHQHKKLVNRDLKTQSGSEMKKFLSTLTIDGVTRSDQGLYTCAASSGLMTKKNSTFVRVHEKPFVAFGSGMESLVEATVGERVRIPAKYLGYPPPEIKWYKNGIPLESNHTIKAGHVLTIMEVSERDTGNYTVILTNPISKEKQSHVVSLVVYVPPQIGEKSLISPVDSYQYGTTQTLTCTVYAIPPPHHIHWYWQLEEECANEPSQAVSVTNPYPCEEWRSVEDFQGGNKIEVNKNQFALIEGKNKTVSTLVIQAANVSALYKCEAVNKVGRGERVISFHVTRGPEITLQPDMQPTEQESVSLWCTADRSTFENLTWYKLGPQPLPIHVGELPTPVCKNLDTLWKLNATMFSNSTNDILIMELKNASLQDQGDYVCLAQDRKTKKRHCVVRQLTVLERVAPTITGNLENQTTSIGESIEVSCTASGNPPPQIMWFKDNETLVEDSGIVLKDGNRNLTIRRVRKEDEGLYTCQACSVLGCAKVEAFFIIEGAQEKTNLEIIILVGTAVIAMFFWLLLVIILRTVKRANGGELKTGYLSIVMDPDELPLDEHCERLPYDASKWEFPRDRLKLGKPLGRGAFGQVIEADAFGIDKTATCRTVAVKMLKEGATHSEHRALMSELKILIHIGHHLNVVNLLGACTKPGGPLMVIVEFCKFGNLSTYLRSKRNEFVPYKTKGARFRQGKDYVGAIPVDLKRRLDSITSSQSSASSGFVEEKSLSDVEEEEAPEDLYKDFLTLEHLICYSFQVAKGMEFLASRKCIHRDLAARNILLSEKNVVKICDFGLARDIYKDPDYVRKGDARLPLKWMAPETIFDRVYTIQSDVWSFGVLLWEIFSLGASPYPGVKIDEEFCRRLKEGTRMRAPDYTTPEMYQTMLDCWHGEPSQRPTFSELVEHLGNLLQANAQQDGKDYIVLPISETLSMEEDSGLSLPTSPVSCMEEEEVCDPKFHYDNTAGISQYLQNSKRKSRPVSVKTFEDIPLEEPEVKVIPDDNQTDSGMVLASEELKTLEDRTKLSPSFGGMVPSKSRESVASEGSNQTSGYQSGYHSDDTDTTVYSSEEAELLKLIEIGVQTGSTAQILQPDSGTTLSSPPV
inhibition at 3 µM (KDR),inhibition at 3 µM (b-Raf),SMILES,Percent improvement (%) [1]
0%,43%,"Nc1ncc(Cl)cc1-c1ccc(Oc2ncc(NC(=O)Nc3cc(C(F)(F)F)ccc3-n3cc(Cl)cn3)cn2)cc1 [Example 15-63, 1-{2-[4-(2-amino-5-chloro-3-pyridinyl)phenoxy]-5-pyrimidinyl}-3-[2-(4-chloro-1H-pyrazol-1-yl)-5-(trifluoromethyl)phenyl]urea]",53%
0%,32%,"Nc1ncc(Cl)cc1-c1ccc(Oc2ncc(NC(=O)Nc3ccc(C(F)(F)F)cc3C(F)(F)F)cn2)cc1 [Example 15-77, 1-{2-[4-(2-amino-5-chloro-3-pyridinyl)phenoxy]-5-pyrimidinyl}-3-[2,4-bis(trifluoromethyl)phenyl]urea]",55%
0%,34%,"Nc1ncc(C(F)(F)F)cc1-c1ccc(Oc2ncc(NC(=O)Nc3cc(C(F)(F)F)ccc3-n3cc(Cl)cn3)cn2)cc1 [Example 15-87, 1-(2-{4-[2-amino-5-(trifluoromethyl)-3-pyridinyl]phenoxyl}-5-pyrimidinyl)-3-[2-(4-chloro-1H-pyrazol-1-yl)-5-(trifluoromethyl)phenyl]urea]",57%
8%,23%,"CS(=O)(=O)c1ccc(C(F)(F)F)cc1NC(=O)Nc1cnc(Oc2ccc(-c3cc(C(F)(F)F)cnc3N)cc2)nc1 [Example 15-98, 1-(2-{4-[2-amino-5-(trifluoromethyl)-3-pyridinyl]phenoxyl}-5-pyrimidinyl)-3-[2-(methylsulfonyl)-5-(trifluoromethyl)phenyl]urea]",57%
18%,53%,"CS(=O)(=O)c1ccc(C(F)(F)F)cc1NC(=O)Nc1cnc(Oc2ccc(-c3cc(Cl)cnc3N)cc2)nc1 [Example 15-104, 1-{2-[4-(2-amino-5-chloro-3-pyridinyl)phenoxy]-5-pyrimidinyl}-3-[2-(methylsulfonyl)-5-(trifluoromethyl)phenyl]urea]",54%
16%,50%,CN(C)c1ccn2ncc(-c3ccc(Oc4ncc(NC(=O)Nc5cc(C(F)(F)F)ccc5-c5cccnc5)cn4)cc3)c2n1 [Example 21-37],67%
9%,49%,"CN(C)c1ccn2ncc(-c3ccc(Oc4ncc(NC(=O)Nc5cc(C(F)(F)F)ccc5-c5ccnn5C)cn4)cc3)c2n1 [Example 21-51, 1-(2-{4-[5-(dimethylamino)pyrazolo[1,5-a]pyrimidin-3-yl]phenoxyl}-5-pyrimidinyl)-3-[2-(1-methyl-1H-pyrazol-5-yl)-5-(trifluoromethyl)phenyl]urea]",68%
0%,19%,"CN(C)c1ccn2ncc(-c3ccc(Oc4ncc(NC(=O)Nc5cc(C(F)(F)F)ccc5-c5ccccc5)cn4)cc3)c2n1 [Example 21-70, 1-(2-{4-[5-(dimethylamino)pyrazolo[1,5-a]pyrimidin-3-yl]phenoxyl}-5-pyrimidinyl)-3-[4-(trifluoromethyl)-2-biphenylyl]urea]",61%
0%,21%,"Cc1cccc(-c2ccc(C(F)(F)F)cc2NC(=O)Nc2cnc(Oc3ccc(-c4cnn5ccc(N(C)C)nc45)cc3)nc2)c1 [Example 21-73, 1-(2-{4-[5-(dimethylamino)pyrazolo[1,5-a]pyrimidin-3-yl]phenoxyl}-5-pyrimidinyl)-3-[3′-methyl-4-(trifluoromethyl)-2-biphenylyl]urea]",62%
